Experimental data published in ChEMBL document CHEMBL5257037, “Side Chain Cyclized Aromatic Amino Acids: Great Tools as Local Constraints in Peptide and Peptidomimetic Design” (J Med Chem, 2016).
Where a SMILES comes first, the peptide text is derived from it. Bridges are numbered along the chain shown (N, C = ends). [ ]: non-standard residue; d: D form. Aic = NC1(C(=O)O)Cc2ccccc2C1; dOrn = NCCC[C@@H](N)C(=O)O; Orn = NCCC[C@H](N)C(=O)O

Assays:
Neprilysin [1] = molecular target: T1, Neprilysin (Rattus norvegicus, UniProt P07861); experiment: Binding affinity to rat kidney neutral endopeptidase; type: tissue-based
T1 sequence (P07861 whole entry): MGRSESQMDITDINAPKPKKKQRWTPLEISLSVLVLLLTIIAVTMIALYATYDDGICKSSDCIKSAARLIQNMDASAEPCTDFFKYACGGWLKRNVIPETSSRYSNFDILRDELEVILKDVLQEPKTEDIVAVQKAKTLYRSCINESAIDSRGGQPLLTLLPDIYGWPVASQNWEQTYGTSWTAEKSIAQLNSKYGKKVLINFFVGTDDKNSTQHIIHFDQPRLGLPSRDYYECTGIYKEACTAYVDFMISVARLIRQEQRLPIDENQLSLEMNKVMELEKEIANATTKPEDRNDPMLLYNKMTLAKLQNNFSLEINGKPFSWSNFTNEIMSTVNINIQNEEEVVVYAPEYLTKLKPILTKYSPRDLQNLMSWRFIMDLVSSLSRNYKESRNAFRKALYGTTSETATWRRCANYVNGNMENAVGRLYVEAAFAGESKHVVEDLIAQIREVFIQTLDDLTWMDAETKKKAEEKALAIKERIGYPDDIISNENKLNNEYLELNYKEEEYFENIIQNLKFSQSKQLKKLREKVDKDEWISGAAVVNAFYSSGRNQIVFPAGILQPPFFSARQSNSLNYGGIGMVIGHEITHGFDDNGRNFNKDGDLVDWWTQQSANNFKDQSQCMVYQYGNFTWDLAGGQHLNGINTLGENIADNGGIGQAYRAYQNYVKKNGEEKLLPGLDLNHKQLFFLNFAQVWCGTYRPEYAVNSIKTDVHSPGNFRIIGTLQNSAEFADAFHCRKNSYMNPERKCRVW

[2] = molecular target: T2, Angiotensin-converting enzyme (Oryctolagus cuniculus, UniProt P12822); experiment: Binding affinity to angiotensin-converting enzyme in rabbit lung assessed as inhibition constant; type: tissue-based
T2 sequence (P12822 whole entry): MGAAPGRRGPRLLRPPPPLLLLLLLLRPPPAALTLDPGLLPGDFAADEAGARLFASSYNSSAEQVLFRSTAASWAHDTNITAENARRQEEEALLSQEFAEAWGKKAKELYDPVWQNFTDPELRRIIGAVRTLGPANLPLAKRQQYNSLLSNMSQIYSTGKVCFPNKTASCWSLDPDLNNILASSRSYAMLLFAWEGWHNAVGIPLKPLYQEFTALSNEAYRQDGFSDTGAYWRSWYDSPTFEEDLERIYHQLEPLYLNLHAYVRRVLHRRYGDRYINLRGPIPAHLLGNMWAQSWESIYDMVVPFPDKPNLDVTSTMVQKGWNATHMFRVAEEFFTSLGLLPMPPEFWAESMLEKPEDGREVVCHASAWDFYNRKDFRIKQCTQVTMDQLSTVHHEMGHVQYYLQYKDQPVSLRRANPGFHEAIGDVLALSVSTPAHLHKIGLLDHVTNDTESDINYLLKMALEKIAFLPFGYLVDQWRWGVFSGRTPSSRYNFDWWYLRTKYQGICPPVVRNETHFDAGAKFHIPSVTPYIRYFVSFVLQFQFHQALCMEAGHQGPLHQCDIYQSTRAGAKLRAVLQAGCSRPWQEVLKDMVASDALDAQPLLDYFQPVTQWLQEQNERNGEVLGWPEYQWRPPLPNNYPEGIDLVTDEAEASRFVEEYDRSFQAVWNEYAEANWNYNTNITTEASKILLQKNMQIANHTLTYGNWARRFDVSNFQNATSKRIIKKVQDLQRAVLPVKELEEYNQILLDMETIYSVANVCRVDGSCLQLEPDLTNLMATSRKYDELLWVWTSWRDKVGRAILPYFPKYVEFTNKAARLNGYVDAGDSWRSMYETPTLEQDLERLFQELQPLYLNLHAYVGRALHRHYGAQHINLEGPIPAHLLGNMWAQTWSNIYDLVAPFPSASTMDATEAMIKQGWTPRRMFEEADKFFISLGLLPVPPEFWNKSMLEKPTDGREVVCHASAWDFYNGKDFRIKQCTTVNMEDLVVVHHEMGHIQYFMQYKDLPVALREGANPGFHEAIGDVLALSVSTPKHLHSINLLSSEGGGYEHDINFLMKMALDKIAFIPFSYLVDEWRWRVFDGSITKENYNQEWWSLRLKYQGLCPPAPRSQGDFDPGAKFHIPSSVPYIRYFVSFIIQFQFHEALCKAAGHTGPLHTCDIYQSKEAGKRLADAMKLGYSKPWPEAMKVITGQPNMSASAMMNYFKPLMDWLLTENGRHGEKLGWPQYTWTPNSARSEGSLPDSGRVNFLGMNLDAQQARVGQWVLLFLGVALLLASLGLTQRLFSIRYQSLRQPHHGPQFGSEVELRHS

[3] = molecular target: Somatostatin receptor type 3 (Homo sapiens, UniProt P32745); experiment: Inhibition of human somatostatin receptor type 3
[4] = molecular target: Somatostatin receptor type 1 (Homo sapiens, UniProt P30872); experiment: Inhibition of human somatostatin receptor type 1
[5] = molecular target: Somatostatin receptor type 5 (Homo sapiens, UniProt P35346); experiment: Inhibition of human somatostatin receptor type 5
[6] = molecular target: Somatostatin receptor type 2 (Homo sapiens, UniProt P30874); experiment: Inhibition of human somatostatin receptor type 2
[7] = molecular target: Somatostatin receptor type 4 (Homo sapiens, UniProt P31391); experiment: Inhibition of human somatostatin receptor type 4
Renin = molecular target: T3, Renin (Homo sapiens, UniProt P00797); experiment: Inhibition of human plasma renin; type: cell-free
T3 sequence (P00797 whole entry): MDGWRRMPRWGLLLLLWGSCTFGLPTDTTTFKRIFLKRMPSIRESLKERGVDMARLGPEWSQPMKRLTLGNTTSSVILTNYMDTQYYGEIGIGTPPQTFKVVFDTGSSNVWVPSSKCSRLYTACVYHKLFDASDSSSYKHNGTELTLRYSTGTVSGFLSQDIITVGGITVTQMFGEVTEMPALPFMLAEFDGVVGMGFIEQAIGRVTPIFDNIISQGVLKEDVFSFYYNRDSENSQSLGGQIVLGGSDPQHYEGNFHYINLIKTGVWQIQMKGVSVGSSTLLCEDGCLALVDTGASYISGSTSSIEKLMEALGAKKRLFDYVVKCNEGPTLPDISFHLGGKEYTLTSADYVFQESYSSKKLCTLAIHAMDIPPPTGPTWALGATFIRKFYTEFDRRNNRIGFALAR

[8] = molecular target: T4, Delta-type opioid receptor (Homo sapiens, UniProt P41143); experiment: Binding affinity to delta opioid receptor (unknown origin) assessed as inhibition constant
Mu-type opioid receptor [9] = molecular target: T5, Mu-type opioid receptor (Homo sapiens, UniProt P35372); experiment: Binding affinity to mu opioid receptor (unknown origin) assessed as inhibition constant
Neprilysin [10] = molecular target: Neprilysin (Homo sapiens, UniProt P08473); experiment: Inhibition of neutral endopeptidase (unknown origin)
[11] = molecular target: Angiotensin-converting enzyme (Homo sapiens, UniProt P12821); experiment: Inhibition of angiotensin-converting enzyme (unknown origin)
[12] = Inhibition of angiotensin-converting enzyme (unknown origin)
[13] = molecular target: T4, Delta-type opioid receptor; experiment: Inhibition of DOR (unknown origin)
Mu-type opioid receptor [14] = molecular target: T5, Mu-type opioid receptor; experiment: Inhibition of MOR (unknown origin)
Mus musculus = species on record: Mus musculus; experiment: Inhibition of electrically evoked mouse vas deferens contraction; type: functional
[15] = molecular target: T2, Angiotensin-converting enzyme; experiment: Inhibition of rabbit lung angiotensin-converting enzyme; type: tissue-based
[16] = molecular target: T6, Somatostatin receptor type 5 (Rattus norvegicus, UniProt P30938); experiment: Inhibition of rat somatostatin receptor type 5
T6 sequence (P30938 whole entry): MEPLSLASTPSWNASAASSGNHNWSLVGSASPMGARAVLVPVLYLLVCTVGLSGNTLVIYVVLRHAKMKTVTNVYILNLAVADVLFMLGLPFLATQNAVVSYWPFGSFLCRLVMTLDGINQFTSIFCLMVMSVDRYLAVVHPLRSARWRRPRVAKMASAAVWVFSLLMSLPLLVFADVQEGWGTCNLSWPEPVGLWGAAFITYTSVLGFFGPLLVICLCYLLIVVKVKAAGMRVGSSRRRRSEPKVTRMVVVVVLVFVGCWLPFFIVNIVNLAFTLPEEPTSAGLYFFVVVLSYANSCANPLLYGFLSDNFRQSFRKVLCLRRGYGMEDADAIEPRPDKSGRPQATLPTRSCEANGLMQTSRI

`O=C(N[C@H]1Cc2ccccc2[C@H]2CCC[C@@H](C(=O)O)N2C1=O)[C@@H](S)Cc1ccccc1` gave a Ki (Neprilysin [1]) of 0.08 nM and a Ki [2] of 0.11 nM.
In the case of `CC(=O)N[C@@H](Cc1ccccc1)C(=O)N[C@@H](Cc1c[nH]c2ccccc12)C(=O)N[C@@H](CCCCN)C(=O)N[C@H](C(N)=O)[C@@H](C)O` (Ac-FWKT-NH2), the IC50 [3] is reported as > 1000 nM, the IC50 [4] is reported as > 1000 nM and the IC50 [5] is reported as > 1000 nM. The IC50 [6] was > 1000 nM and the IC50 [7] was > 1000 nM.
Work on `CCCCNC(=O)[C@@H](C[C@H](O)[C@H](CC1CCCCC1)NC(=O)[C@H](CCCC)NC(=O)[C@H](Cc1ccccc1)NC(C)=O)C(C)C` yielded an IC50 (Renin) of 0.84 nM.
`NC(=O)[C@@H]1CCC(=O)NCCC[C@H](NC(=O)[C@@H](N)Cc2ccc(O)cc2)C(=O)NC2(Cc3ccccc3C2)C(=O)N1` (H-Y[Orn][Aic]E-NH2; lactam 2-4) gave a Ki [8] of 209 nM and a Ki (Mu-type opioid receptor [9]) of 4.21 nM.
Compound `C[C@H](NC(=O)[C@@H](CS)Cc1ccccc1)C(=O)N1c2ccccc2C[C@H]1C(=O)O` has an IC50 (Neprilysin [10]) of 2.6 nM and an IC50 [11] of 7.8 nM.
Compound `CC(CS)C(=O)N1CCc2ccccc2C1C(=O)O` (stereo not drawn) has an IC50 [12] of 58000 nM.
For `C[C@H](NC(=O)[C@@H](CS)Cc1ccccc1)C(=O)N1Cc2ccccc2C[C@H]1C(=O)O`, the IC50 (Neprilysin [10]) was 3.9 nM and the IC50 [11] was 14 nM.
Work on `C[C@@H](NC(=O)[C@@H](N)Cc1ccc(O)cc1)C(=O)N[C@@H](Cc1ccccc1)C(=O)NCC(N)=O` (H-Y[dA]FG-NH2) yielded an IC50 [13] of 1250 nM and an IC50 (Mu-type opioid receptor [14]) of 36.7 nM.
In the case of `CC(CS)C(=O)N1Cc2ccccc2C1C(=O)O` (stereo not drawn), the IC50 [12] is reported as 14000 nM.
For `CC(=O)N[C@@H](Cc1ccccc1)C(=O)N[C@]1(C)Cc2c([nH]c3ccccc23)CN([C@@H](CCCCN)C(=O)N[C@H](C(N)=O)[C@@H](C)O)C1=O`, the IC50 [3] was > 1000 nM, the IC50 [4] was > 1000 nM and the IC50 [5] was > 1000 nM. For the same compound, the IC50 [6] was > 1000 nM and the IC50 [7] was > 1000 nM.
In the case of `O=C(N[C@H]1Cc2ccccc2[C@H]2CCC[C@@H](C(=O)O)N2C1=O)[C@H](S)Cc1ccccc1`, the Ki (Neprilysin [1]) is reported as 0.07 nM and the Ki [2] is reported as 4.5 nM.
`CC(C)[C@H](NC(=O)[C@H](CC(=O)O)NC(=O)C1(NC(=O)[C@@H](C)NC(=O)[C@@H](N)Cc2ccc(O)cc2)Cc2ccccc2C1)C(=O)N[C@H](C(=O)NCC(N)=O)C(C)C` (H-Y[dA][Aic]DVVG-NH2) gave a Ki [8] of 4.96 nM and an IC50 (Mus musculus) of 0.08 nM.
`NC(=O)[C@@H]1CCC(=O)NCCC[C@@H](NC(=O)[C@@H](N)Cc2ccc(O)cc2)C(=O)N[C@@H](Cc2ccccc2)C(=O)N1` (H-Y[dOrn]FE-NH2; lactam 2-4) showed a Ki [8] of 3.21 nM and a Ki (Mu-type opioid receptor [9]) of 0.98 nM.
`O=C(O)[C@H](CCc1ccccc1)N[C@H]1CCc2cccc3c2N(C1=O)[C@H](C(=O)O)C3` showed an IC50 [15] of 5.2 nM.
Compound `CC(=O)N[C@@H](Cc1ccccc1)C(=O)N[C@@H]1Cc2c([nH]c3ccccc23)CN([C@@H](CCCCN)C(=O)N[C@H](C(N)=O)[C@@H](C)O)C1=O` has an IC50 [4] of 253 nM, an IC50 [7] of 36 nM and an IC50 [16] of 217 nM.
